Columns and labels:
[1] = target: T1, Full length human recombinant PIKFYVE (Homo sapiens, UniProt Q9Y2I7, L932S/Q1183K/Q995L/S1033A/S696N/T998S); assay: Inhibition of PIKfyve (microfluidic electrophoresis kinase assay); format: biochemical; conditions: 2 nM enzyme, 1 μM PI3P, 3 h at room temperature, 12 concentrations; read-out: PIKfyve IC50
T1 construct: Full length human recombinant PIKFYVE; purchased Carna Biosciences (Kobe, Japan); host or cells: baculovirus expression system (insect cells)
Experimental: Biological Example 1: Inhibition of PIKfyve
Full length human recombinant PIKFYVE expressed in baculovirus expression system as N-terminal GST-fusion protein (265 kDa) was obtained from Carna Biosciences (Kobe, Japan). The kinase substrate was prepared by mixing and sonicating fluorescently-labeled phosphatidylinositol 3-phosphate (PI3P) with phospho-L-serine (PS) at a 1:10 ratio in 50 mM HEPES buffer pH7.5.
The kinase reactions were assembled in 384-well plates (Greiner) in a total volume of […] as follows. Kinase protein was pre-diluted in an assay buffer comprising 25 mM HEPES, pH 7.5, 1 mM DTT, 2.5 mM MgCl2, and 2.5 mM MnCl2, and 0.005% Triton X-100, and dispensed into a 384-well plate (10 μL per well). Test compounds were serially pre-diluted in DMSO and added to the protein samples by acoustic dispensing (Labcyte Echo). The concentration of DMSO was equalized to 1% in all samples. All test compounds were tested at 12 concentrations. Apilimod was used as a reference compound and was tested in identical manner in each assay plate. Control samples (0%-inhibition, in the absence of inhibitor, DMSO only) and 100%-inhibition (in the absence of enzyme) were assembled in replicates of four and were used to calculate %-inhibition in the presence of compounds. The reactions were initiated by addition of 10 μL of 2× PI3P/PS substrate supplemented with ATP. The final concentration of enzyme was 2 nM, the final concentration of ATP was […], and the final concentration of PI3P/PS substrate was 1 μM (PI3P). The kinase reactions were allowed to proceed for 3 h at room temperature. Following incubation, the reactions were quenched by addition of […] of termination buffer (100 mM HEPES, pH 7.5, 0.01% Triton X-100, 20 mM EDTA). Terminated plates were analyzed on a microfluidic electrophoresis instrument (Caliper LabChip® 3000, Caliper Life Sciences/Perkin Elmer). The change in the relative fluorescence intensity of the PI(3)P substrate and PI(3,5)P product peaks was measured. The activity in each test sample was determined as the product to sum ratio (PSR): P/(S+P), where P is the peak height of the product, and S is the peak height of the substrate. Percent inhibition (Pinh) was determined using the following equation:
Pinh=(PSR0%inh−PSRcompound)/(PSR0%inh−P100%inh)*100
in which PSRcompound is the product/sum ratio in the presence of compound, PSR0%inh is the product/sum ratio in the absence of compound, and the PSR100%inh is the product/sum ratio in the absence of the enzyme. To determine the ICso of test compounds (50%-inhibition) the %-inh cdata (Pinh versus compound concentration) were fitted by a four-parameter sigmoid dose-response model using XLfit software (IDBS).

[2] = tested on: ALS patient (SOD1 A4V) iPSC derived motor neurons; assay: iPSC MN Survival assay (IPSC-SOD1); format: cell-based, human; conditions: nutrient deprived media (HBSS), six days, maximal reduction in hazard ratio, <1.0 increased survival
Experimental: Biological Example 4: iPSC MN Survival assay
Fibroblasts from ALS patients with known SOD1 A4V mutation were reprogrammed into inducible pluripotent stem cells (iPSC) and then differentiated to motor neurons. In culture, ALS patient derived motor neurons show increased death rate compared to motor neurons derived from healthy individuals in a stressed condition (nutrient deprived media, Hank's buffered salt solution—HBSS). […] Cell rescue was measured following more than two different concentrations of each compound for six days with greater than four replicates in a 96-well format to ensure studies with power >0.8. Cells are transduced with a GFP reporter and imaged once a day to track survival. A broad-spectrum caspase inhibitor served as the positive control.
Microscopy image-based readout: Cells are transduced with a GFP reporter and imaged once a day with a blue laser to track survival. Imagers used include the Biotek Cytation 5 and Thermo Fisher EVOS Auto FL 2. All Images undergo uniform processing consisting of rolling hat background subtraction and contrast adjustment. Microscopy images are analyzed using software proprietary to Verge. Cells are identified by their shape and each cell is tracked across images and time points for each well. Survival is visually assessed from the Kaplan-Meier curves. Survival of the cells is modeled and tested using a mixed effects Cox regression where each well is modeled as the random effect, and the group (control/treatment) as the fixed effect. […]. Data are presented in Table 7 as the maximal reduction in hazard ratio scores measured at various concentrations.

[3] = tested on: IPSC-C9 motor neurons; assay: iPSC MN Survival assay (IPSC-C9); format: cell-based, human; conditions: maximal reduction in hazard ratio vs control at various concentrations; <1.0 increased survival, >1.0 decreased survival
[4] = target: T2, PI3Kδ (p110δ/p85α) (Homo sapiens, UniProt O00329); format: biochemical; conditions: 0.25 nM enzyme, ATP 90 μM, 1 μM PIP2, 3 h room temperature; read-out: PI3Kδ IC50
T2 construct: Full-length N-terminal GST-; GST (N); host or cells: SF9 cells (baculovirus)

[5] = target: T3, PI3Kα (p110α/p85α) (Homo sapiens, UniProt P42336); format: biochemical; conditions: 0.5 nM enzyme, ATP 90 μM, 1 μM PIP2, 3 h room temperature; read-out: PI3Kα IC50
T3 construct: Full-length N-terminal; FLAG (N); host or cells: SF9 cells (baculovirus)

[6] = target: T4, PI3Kβ (p110β/p85α) (Homo sapiens, UniProt P42338); format: biochemical; conditions: 1 nM enzyme, ATP 60 μM, 1 μM PIP2, 3 h room temperature; read-out: PI3Kβ IC50
T4 construct: Full-length N-terminal GST-; GST (N); host or cells: SF9 cells (baculovirus)

T1 sequence (Q9Y2I7 whole entry S696N/L932S/Q995L/T998S/S1033A/Q1183K): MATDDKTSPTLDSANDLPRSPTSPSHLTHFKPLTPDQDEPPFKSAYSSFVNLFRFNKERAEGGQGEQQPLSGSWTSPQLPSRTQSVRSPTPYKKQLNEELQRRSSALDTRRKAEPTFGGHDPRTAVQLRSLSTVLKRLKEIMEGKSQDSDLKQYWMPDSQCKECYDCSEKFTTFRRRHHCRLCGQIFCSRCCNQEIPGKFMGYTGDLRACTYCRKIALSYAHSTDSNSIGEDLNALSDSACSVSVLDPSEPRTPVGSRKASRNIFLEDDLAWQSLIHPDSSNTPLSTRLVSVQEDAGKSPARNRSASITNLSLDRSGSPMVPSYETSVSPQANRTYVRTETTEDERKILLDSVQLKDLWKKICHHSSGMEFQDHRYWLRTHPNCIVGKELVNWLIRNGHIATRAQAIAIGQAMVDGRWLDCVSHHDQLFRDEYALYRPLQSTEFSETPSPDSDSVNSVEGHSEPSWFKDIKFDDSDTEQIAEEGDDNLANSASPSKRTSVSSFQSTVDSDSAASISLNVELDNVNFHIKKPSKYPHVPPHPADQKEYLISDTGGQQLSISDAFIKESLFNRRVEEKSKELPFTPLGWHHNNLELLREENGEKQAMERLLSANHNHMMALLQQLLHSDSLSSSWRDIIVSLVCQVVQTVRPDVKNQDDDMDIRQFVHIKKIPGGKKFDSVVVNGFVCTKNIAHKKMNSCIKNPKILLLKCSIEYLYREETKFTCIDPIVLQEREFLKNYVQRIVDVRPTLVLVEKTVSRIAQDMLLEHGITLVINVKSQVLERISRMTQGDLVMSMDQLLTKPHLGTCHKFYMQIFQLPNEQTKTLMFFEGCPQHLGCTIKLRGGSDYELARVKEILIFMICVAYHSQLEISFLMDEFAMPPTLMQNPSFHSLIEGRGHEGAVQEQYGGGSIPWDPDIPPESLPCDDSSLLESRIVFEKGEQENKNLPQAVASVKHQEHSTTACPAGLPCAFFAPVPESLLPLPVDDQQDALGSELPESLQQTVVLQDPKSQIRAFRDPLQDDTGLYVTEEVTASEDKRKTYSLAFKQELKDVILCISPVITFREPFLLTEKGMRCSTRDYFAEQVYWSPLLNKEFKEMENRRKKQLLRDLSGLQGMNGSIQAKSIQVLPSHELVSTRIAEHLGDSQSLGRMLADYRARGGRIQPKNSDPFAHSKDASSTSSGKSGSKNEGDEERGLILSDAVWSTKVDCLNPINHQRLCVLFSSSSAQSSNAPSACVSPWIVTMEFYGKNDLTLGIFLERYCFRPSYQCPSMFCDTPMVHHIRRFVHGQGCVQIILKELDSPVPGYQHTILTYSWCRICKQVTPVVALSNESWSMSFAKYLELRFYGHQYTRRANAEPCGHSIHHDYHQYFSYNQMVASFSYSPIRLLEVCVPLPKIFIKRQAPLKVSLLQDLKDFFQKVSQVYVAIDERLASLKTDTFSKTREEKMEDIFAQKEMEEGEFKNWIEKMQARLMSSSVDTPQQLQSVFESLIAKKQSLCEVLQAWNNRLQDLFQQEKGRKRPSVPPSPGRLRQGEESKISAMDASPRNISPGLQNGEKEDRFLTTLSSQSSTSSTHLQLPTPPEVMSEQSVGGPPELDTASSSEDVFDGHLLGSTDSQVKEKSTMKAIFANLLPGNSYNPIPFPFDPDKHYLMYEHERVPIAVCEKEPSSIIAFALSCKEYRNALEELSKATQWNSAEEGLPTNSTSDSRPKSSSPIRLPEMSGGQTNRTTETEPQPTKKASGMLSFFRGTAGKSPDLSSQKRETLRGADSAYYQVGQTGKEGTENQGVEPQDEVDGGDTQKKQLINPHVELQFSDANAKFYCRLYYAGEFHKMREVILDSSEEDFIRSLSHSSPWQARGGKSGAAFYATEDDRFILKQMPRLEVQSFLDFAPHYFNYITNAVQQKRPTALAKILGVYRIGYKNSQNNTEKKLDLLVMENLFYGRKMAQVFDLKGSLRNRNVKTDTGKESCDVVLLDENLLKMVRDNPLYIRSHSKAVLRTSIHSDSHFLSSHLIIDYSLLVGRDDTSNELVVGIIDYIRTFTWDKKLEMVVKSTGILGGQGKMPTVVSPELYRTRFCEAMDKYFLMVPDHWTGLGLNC
T3 sequence (P42336 whole entry): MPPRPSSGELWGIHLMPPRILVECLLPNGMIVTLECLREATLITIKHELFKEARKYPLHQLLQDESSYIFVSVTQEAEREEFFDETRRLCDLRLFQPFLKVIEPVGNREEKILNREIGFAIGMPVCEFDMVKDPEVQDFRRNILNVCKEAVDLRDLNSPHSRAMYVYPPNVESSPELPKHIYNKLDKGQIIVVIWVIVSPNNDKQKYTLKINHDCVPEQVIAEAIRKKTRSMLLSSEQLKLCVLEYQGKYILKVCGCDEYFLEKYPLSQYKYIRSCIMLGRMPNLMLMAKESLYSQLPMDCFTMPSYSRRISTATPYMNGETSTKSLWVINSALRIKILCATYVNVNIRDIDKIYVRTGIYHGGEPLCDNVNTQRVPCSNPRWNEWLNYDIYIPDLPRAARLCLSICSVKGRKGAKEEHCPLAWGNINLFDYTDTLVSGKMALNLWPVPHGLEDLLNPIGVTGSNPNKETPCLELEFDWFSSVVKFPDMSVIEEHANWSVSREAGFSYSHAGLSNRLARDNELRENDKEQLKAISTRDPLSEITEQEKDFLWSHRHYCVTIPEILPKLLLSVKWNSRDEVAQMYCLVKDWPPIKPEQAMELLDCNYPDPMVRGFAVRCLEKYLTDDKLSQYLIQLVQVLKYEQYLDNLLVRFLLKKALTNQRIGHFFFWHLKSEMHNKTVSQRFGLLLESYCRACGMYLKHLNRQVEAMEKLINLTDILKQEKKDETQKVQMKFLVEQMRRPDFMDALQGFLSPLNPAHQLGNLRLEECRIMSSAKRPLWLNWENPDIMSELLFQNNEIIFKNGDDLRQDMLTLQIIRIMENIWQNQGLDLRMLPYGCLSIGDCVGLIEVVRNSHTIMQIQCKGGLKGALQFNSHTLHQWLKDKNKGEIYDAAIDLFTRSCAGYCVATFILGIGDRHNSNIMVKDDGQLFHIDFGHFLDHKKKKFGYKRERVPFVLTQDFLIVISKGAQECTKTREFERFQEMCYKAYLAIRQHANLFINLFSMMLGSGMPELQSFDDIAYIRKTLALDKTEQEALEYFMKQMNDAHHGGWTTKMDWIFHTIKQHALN
T3 sequence (P27986 whole entry, further chain): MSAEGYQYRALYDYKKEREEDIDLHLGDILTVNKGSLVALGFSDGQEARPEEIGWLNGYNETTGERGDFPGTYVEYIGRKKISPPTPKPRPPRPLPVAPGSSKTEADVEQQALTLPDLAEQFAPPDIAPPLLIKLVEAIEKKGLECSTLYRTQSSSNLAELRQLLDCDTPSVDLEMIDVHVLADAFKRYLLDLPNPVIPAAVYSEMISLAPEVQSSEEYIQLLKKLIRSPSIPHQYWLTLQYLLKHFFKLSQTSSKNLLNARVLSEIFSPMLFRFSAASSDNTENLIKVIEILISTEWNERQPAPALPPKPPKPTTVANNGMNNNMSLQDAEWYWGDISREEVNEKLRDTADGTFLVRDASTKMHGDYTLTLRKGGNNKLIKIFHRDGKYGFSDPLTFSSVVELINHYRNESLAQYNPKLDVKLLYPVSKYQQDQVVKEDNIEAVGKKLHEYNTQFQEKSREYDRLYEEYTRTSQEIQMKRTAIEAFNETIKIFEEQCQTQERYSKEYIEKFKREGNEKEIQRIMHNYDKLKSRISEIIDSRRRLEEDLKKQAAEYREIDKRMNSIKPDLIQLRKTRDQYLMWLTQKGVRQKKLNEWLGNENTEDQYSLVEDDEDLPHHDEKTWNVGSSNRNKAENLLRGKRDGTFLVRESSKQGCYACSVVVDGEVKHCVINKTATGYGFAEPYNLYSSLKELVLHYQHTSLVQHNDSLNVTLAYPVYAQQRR
T2 sequence (O00329 whole entry): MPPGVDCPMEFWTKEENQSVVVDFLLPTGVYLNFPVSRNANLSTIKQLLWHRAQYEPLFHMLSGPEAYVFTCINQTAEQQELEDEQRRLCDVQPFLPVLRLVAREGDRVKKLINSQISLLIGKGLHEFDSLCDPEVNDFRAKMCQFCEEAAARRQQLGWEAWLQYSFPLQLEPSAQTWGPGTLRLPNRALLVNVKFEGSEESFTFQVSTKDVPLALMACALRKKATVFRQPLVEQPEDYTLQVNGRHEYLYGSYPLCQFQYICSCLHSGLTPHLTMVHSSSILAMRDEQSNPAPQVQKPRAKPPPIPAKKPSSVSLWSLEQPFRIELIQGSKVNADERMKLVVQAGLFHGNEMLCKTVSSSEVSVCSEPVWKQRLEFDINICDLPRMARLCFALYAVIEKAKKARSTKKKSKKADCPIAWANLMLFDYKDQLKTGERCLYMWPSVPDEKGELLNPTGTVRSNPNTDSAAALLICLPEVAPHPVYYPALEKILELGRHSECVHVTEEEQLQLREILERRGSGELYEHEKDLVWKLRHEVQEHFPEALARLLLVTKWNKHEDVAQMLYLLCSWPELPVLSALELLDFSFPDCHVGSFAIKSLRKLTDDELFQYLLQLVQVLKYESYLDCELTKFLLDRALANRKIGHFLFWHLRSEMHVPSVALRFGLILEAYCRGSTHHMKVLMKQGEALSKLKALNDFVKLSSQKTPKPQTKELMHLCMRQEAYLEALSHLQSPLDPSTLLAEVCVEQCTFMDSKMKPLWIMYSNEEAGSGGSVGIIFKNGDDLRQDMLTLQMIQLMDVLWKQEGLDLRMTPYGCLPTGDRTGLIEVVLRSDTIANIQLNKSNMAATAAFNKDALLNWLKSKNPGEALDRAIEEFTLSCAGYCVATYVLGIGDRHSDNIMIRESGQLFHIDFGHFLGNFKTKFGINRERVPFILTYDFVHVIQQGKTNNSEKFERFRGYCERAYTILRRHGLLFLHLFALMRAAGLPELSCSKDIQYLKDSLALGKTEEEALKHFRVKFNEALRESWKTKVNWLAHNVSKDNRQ
T2 sequence (P27986 whole entry, further chain): as the sequence (P27986 whole entry, further chain) above

SMILES: c1cnc2oc3c(N4CCOCC4)nc(Nc4cncnc4)nc3c2c1 [Example 43, 4-morpholino-N-(pyrimidin-5-yl)pyrido[3′,2′:4,5]furo[3,2-d]pyrimidin-2-amine]
- IC50 [1]: > 10000 nM
- IPSC-SOD1 (Hazard Ratio) [2]: 1.1
- IPSC-C9 (Hazard Ratio) [3]: 1.06

SMILES: c1cnc2oc3c(N4CCOCC4)nc(Nc4cc(-c5ccncc5)n[nH]4)nc3c2c1 [Example 10, 4-Morpholino-N-(3-(pyridin-4-yl)-1H-pyrazol-5-yl)pyrido[3′,2′:4,5]furo[3,2-d]pyrimidin-2-amine]
- IC50 [1]: 185 nM
- IC50 [4]: 37 nM
- IPSC-SOD1 (Hazard Ratio) [2]: 1.04
- IPSC-C9 (Hazard Ratio) [3]: 0.96
- IC50 [5]: 117 nM
- IC50 [6]: 1310 nM

SMILES: c1ccc(-c2cc(Nc3nc(N4CCOCC4)c4oc5ncc(CCN6CCCC6)cc5c4n3)[nH]n2)cc1 [Example 14, 4-Morpholino-N-(3-phenyl-1H-pyrazol-5-yl)-8-(2-(pyrrolidin-1-yl)ethyl)pyrido[3′,2′:4,5]furo[3,2-d]pyrimidin-2-amine]
- IC50 [1]: 2320 nM
- IPSC-SOD1 (Hazard Ratio) [2]: 0.96
- IPSC-C9 (Hazard Ratio) [3]: 0.9

SMILES: Cc1cc(Nc2nc(N3CCOCC3)c3oc4ncccc4c3n2)nn1C [Example 47, N-(1,5-dimethyl-1H-pyrazol-3-yl)-4-morpholinopyrido[3′,2′:4,5]furo[3,2-d]pyrimidin-2-amine]
- IC50 [1]: 4320 nM
- IC50 [4]: 54 nM
- IPSC-SOD1 (Hazard Ratio) [2]: 1.1
- IC50 [5]: 82 nM
- IC50 [6]: 2630 nM

SMILES: Cc1cc(N(C)c2nc(N3CCOCC3)c3oc4ncccc4c3n2)nn1C [Example 11, N-(1,5-Dimethyl-1H-pyrazol-3-yl)-N-methyl-4-morpholinopyrido[3′,2′:4,5]furo[3,2-d]pyrimidin-2-amine]
- IC50 [1]: > 10000 nM
- IC50 [4]: 278 nM
- IPSC-SOD1 (Hazard Ratio) [2]: 1.1
- IPSC-C9 (Hazard Ratio) [3]: 0.99
- IC50 [5]: 244 nM
- IC50 [6]: 7030 nM

SMILES: c1ccc(-c2cc(Nc3nc(N4CCOCC4)c4oc5ncccc5c4n3)[nH]n2)cc1 [Example 9, 4-Morpholino-N-(3-phenyl-1H-pyrazol-5-yl)pyrido[3′,2′:4,5]furo[3,2-d]pyrimidin-2-amine]
- IC50 [1]: 23 nM
- IC50 [4]: 75 nM
- IPSC-SOD1 (Hazard Ratio) [2]: 0.81
- IPSC-C9 (Hazard Ratio) [3]: 0.65
- IC50 [5]: 144 nM
- IC50 [6]: > 10000 nM

SMILES: Cl.c1cnc2oc3c(N4CCOCC4)nc(Nc4cc(-c5ccsc5)n[nH]4)nc3c2c1 [Example 61, 4-morpholino-N-(3-(thiophen-3-yl)-1H-pyrazol-5-yl)pyrido[3′,2′:4,5]furo[3,2-d]pyrimidin-2-amine hydrochloride]
- IC50 [1]: 26 nM
- IPSC-C9 (Hazard Ratio) [3]: 0.542

SMILES: c1ccc(Nc2nc(N3CCOCC3)c3oc4ncccc4c3n2)cc1 [Example 37, 4-morpholino-N-phenylpyrido[3′,2′:4,5]furo[3,2-d]pyrimidin-2-amine]
- IC50 [1]: 439 nM
- IC50 [4]: 41 nM
- IPSC-SOD1 (Hazard Ratio) [2]: 1.03
- IPSC-C9 (Hazard Ratio) [3]: 0.99
- IC50 [5]: 67 nM
- IC50 [6]: 1040 nM

SMILES: Cc1cccc(-c2cc(Nc3nc(N4CCOCC4)c4oc5ncccc5c4n3)[nH]n2)c1 [Example 49, 4-morpholino-N-(3-(m-tolyl)-1H-pyrazol-5-yl)pyrido[3′,2′:4,5]furo[3,2-d]pyrimidin-2-amine]
- IC50 [1]: 38 nM
- IPSC-SOD1 (Hazard Ratio) [2]: 1.03
- IPSC-C9 (Hazard Ratio) [3]: 1.2
